Here are results for 13 compounds from patent US5493007A, “Platelet aggregation inhibitors having high specificity for GPIIBIIIA” (Genentech, Inc., priority 1994, dated 1996).

Structures are written as SMILES. “And” between values parts separate entries of the source, which are not always exact repeats. Equal values may be shown once. Read-outs that look alike come from different tables or passages of the source. Where a SMILES comes first, the peptide text is derived from it. Bridges are numbered along the chain shown (N, C = ends). [ ]: non-standard residue; d: D form. The star is where a group is joined. Aad = N[C@@H](CCCC(=O)O)C(=O)O; Pen = CC(C)(S)[C@H](N)C(=O)O; dOrn = NCCC[C@@H](N)C(=O)O; Orn = NCCC[C@H](N)C(=O)O; NH(CH2)4NH2 = NCCCCN*; Ava = NCCCCC(=O)O A value given as a limit tells only on which side of the number the result lay.

The target of assay [1] is T1, Vitronectin Receptor (αvβ3) (Homo sapiens, UniProt P05106+P06756).
T1 construct: Human vitronection receptor (VnR) is purified from human placenta; from tissue; host or cells: human placenta
Kind of assay: Human Vitronectin-Vitronectin Receptor (αvβ3) ELISA Assay. It counts as binding. Conditions: purified human αvβ3, vitronectin-coated plates; read-out: ELISA IC50 Vitronectin VnR. The source says: Human vitronectin (Vn) is isolated from human plasma and purified by affinity chromatography by the method of Yatohgo et. al., (Cell Structure and Function 13:281-292 [1988]).
Human vitronection receptor (VnR) is purified from human placenta by the method of Pytela et al., (Methods Enzymol., 144:475 [1987]). Alternatively the αvβ3 receptor can be purified from some cell lines (e.g., human embryonic kidney 293 cells) transfected with DNA sequences for both the αv and β3 subunits. The subunits are purified by employing octylglucoside extraction followed by Con-A, Heparin-Sepharose, and S-300 Chromatography.
Anti-GP IIb IIIa monoclonal antibodies specific for human GP IIIa are prepared by the method of Newman et al. (Blood, 65:227-232 [1985]), or a similar procedure. This mouse Mab is specific for the β3 subunit of the vitronectin receptor.
Rabbit Fab 2 anti-mouse Fc fragment horse radish peroxidase conjugate (anti-MuFc HRP) is obtained from PelFreeze (cat. no. 715305-1).
Maxisorp microtiter plates are coated with 2 μg/ml human vitronectin dissolved in PBS ([…]) and stored overnight at 4° C. The plates are washed two times with PBS-0.05% Tween-20 (wash buffer) and blocked by incubating with about 150 μl/well of assay buffer (1%, BSA [RIA grade or better] in 50 mM Tris-HCl, 100 mM NaCl, 1 mM MgCl2, CaCl2, MnCl2 pH 7.4) for 60 minutes. Dilutions of standards are prepared and putative inhibitors (Table 3) are dissolved in assay buffer. The blocked plates are emptied and 25 μl/well of inhibitor or standard solution is added to each well. Twenty-five μl of a 30 μg/ml solution of purified αvβ3 in assay buffer is pipetted into the coated plate. The final concentration of receptor in the assay well is about 15 μg/ml. The plate is incubated on a shaker for 60 minutes. Meanwhile, for each microtite plate, 6 ml buffer solution containing 1.5 μg/ml of mouse monoclonal antibody specific for β3 is prepared. To this solution is added μl of the secondary antibody, which is anti-mouse-Fc-HRP antibody conjugate. For example, for one plate, prepare 6 ml of a 1.5 μg/ml mouse Mab solution to which is added 1 μl of anti-mouse-Fc-HRP antibody stock, (this represents a 1:6000 dilution of the antibody - HRP conjugate). This mixture is allowed to incubate during the receptor-inhibitor incubation. The assay plates are washed 4 times with PBS-Tween and 50 μl/well of the antibody mixture is then pipetted into the plate for a 60 minute incubation. The plate is washed 4 times and the color reaction is developed with 50 μl/well of 0.67 mg/ml o-phenyldiamine in PBS containing 0.012% H2 O2. Alternatively, 16 mM citric acid, 50 mM Na2 PO4 at pH 5.0 can be used as a substrate buffer. The reaction is stopped with 50 μl/well 1M H2 SO4. The plates are read at 492-405 nm and the data analyzed by four-parameter fit.
Background: ELISA stands for enzyme-linked immunosorbent assay.

A further assay addresses Fibronectin Receptor (Homo sapiens, UniProt P05556+P08648). Description: Human Fibronectin-Fibronectin Receptor ELISA Assay. It counts as binding. Set-up: octylglucoside (OG) extracted human placenta; from tissue; host or cells: human placenta. Conditions: human placenta fibronectin receptor, fibronectin-coated plates; read-out: ELISA IC50 Fibronectin FnR. How it is done: Fibronectin receptor is purified according to the procedures of Pytela et al., (Methods Enzymol. 144:475 […]). Briefly, fibronectin receptor is purified employing an Arg-Gly-Asp affinity chromatography from (100 mM) octylglucoside (OG) extracted human placenta. The OG extract is filtered over Sepharose 6B GRGDSPK column. The column is washed three times with three column volumes of Tris-buffered saline (TBS) TBS, 1 mM CaCl2, and 25 mM OG. The receptor is eluted with TBS, 20 mM EDTA, and 25 mM Octyl thioglucoside, and is stored in 1 mM CaCl2, 1 mM MgCl2, at -80° C.
Microtiter plates are coated with 110 μl human fibronectin (at 2 μg/ml) in TBS. Plates are washed three times with TBS containing 0.05% Tween 20. Test inhibitors are then added after washing in 10 microliter aliquots. The fibronectin receptor is added in 2-fold serial dilutions with TBS containing 20 mM octyl glucoside and 2 mM MnCl2. Plates are incubated three hours at room temperature, and washed with 200 μl TBS-Tween 20 buffer. 100 μl of affinity-purffied rabbit anti-human fibronectin receptor antibody is added to the wells and the plates are incubated two hours, washed twice with TBS-Tween and once with distilled water. Affinity-purified goat anti-rabbit IgG conjugated to horseradish peroxidase (100 μl) is added to each well followed by incubation for 60 minutes at room temperature. Plates are again washed twice with TBS-Tween and distilled water. 100 μl of substrate mixture (10 mg o-phenylenediamine in 25 ml 0.1M citrate-phosphate buffer, pH 5.0 6 μ30% H2 O2) is added to the plates and allowed to develop. The development process is stopped by adding 50 μl of 4N H2 SO4 to each well and read at […].

Assay [2] concerns the target human platelet rich plasma (PRP) (Homo sapiens, UniProt P05106+P08514). Description: In Vitro Human Platelet Aggregation Assay. It is filed as cell-based. Conditions: for platelet aggregation inhibition potency, result in words: human platelet aggregation in vitro. How it is done: Platelet aggregation assays are performed in human platelet rich plasma (PRP). Fifty milliliters of whole human blood (9 parts) is drawn on 3.6% sodium citrate (1 part) from a donor who has not taken aspirin or related medications for at least two weeks. The blood is centrifuged at 160×g for 10 minutes at 22° C. and allowed to stand for 5 minutes after which the PRP is decanted. Platelet poor plasma (PPP) is isolated from the remaining blood after centrifugation at 2000×g for 25 minutes. The platelet count of the PRP is diluted to about 300,000 platelets per microliter with PPP.
A 225 μl aliquot of PRP plus 25 μl of either a dilution of the test inhibitor sample or a control (PBS) is incubated for 5 minutes in a Chrono-log Whole Blood Aggregometer at 25° C. An aggregating agent (collagen, 1 μg/ml; U46619, 100 ng/ml; or ADP, 17 μM) is added and the transmission is recorded.

[3] abbreviates: human PRP, read-out: Human Platelet Aggregation IC50.

Usually IC50 stands for the midpoint of a concentration-inhibition curve.

Chain of human platelet rich plasma (PRP) (P08514 32-1039): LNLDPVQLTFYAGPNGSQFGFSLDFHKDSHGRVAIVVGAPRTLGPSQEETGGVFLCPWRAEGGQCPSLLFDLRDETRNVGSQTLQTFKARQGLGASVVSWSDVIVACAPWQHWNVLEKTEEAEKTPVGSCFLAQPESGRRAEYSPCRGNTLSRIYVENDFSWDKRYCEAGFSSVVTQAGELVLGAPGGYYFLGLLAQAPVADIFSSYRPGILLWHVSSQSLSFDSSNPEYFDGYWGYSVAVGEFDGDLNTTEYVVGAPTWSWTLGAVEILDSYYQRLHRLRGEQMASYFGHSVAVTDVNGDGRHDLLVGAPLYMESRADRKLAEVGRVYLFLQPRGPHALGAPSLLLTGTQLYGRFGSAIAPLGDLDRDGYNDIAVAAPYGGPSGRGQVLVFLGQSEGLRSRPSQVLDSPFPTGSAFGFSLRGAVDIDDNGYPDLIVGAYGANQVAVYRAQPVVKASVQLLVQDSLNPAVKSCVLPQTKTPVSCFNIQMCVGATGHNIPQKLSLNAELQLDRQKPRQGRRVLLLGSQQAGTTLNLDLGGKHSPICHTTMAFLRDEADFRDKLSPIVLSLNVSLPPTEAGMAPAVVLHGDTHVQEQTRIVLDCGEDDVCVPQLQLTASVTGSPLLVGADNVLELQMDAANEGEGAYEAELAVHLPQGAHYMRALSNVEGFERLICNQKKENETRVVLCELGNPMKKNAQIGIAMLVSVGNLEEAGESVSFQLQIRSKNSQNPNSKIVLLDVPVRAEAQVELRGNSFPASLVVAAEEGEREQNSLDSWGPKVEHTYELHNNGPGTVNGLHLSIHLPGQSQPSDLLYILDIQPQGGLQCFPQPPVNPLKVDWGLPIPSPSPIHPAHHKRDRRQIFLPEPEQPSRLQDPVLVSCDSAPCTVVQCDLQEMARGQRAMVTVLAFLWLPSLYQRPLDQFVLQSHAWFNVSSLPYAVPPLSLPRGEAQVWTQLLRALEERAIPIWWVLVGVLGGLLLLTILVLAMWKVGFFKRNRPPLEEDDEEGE
Chain of human platelet rich plasma (PRP) (P05106 27-788): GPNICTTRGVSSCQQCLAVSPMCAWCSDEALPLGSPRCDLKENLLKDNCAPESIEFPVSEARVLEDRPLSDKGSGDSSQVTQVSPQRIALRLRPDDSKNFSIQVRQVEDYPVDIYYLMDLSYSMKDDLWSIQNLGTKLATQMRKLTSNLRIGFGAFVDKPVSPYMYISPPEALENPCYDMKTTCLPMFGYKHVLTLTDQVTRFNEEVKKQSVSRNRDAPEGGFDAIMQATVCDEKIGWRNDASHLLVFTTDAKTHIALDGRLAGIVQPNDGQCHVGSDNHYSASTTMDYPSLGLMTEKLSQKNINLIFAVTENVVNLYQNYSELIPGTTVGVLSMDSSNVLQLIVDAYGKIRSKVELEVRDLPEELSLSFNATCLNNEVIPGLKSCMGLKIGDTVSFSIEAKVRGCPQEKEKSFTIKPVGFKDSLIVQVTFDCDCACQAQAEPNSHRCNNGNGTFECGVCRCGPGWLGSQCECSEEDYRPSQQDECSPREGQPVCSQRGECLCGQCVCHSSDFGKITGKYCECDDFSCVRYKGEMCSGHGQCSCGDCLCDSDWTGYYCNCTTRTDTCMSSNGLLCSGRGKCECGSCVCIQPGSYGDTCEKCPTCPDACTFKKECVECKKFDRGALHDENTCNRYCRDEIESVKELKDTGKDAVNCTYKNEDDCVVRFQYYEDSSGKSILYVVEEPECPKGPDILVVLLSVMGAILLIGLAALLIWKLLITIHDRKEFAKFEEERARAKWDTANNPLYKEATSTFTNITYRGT
Chain of Fibronectin Receptor (P08648 42-894 limits assumed): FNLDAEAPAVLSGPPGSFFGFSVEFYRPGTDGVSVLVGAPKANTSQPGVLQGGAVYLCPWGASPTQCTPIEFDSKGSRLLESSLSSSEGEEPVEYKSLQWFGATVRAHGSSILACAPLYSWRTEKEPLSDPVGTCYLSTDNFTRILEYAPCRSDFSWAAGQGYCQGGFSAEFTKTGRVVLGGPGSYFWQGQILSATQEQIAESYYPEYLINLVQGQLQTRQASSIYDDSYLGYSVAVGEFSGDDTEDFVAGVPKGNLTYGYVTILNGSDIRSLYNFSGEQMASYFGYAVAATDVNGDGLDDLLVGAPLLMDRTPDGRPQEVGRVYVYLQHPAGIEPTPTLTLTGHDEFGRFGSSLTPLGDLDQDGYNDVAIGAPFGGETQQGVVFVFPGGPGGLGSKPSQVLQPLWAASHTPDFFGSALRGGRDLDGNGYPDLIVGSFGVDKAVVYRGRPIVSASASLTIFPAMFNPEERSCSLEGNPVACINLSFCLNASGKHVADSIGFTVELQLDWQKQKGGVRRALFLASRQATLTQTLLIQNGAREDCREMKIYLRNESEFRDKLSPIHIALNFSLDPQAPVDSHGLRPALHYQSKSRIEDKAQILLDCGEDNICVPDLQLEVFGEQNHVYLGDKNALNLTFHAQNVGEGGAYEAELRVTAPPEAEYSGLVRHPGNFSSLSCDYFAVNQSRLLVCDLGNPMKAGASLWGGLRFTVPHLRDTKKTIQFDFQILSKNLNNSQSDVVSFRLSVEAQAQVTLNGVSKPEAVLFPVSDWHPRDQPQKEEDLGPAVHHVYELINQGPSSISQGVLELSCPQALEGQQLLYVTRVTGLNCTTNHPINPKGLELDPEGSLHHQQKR
Chain of Fibronectin Receptor (P08648 895-1049 partner limits assumed): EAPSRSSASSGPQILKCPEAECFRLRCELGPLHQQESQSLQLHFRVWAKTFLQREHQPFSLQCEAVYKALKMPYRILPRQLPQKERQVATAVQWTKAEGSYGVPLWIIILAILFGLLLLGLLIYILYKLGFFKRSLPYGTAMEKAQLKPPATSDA
Chain of Fibronectin Receptor (P05556 21-798): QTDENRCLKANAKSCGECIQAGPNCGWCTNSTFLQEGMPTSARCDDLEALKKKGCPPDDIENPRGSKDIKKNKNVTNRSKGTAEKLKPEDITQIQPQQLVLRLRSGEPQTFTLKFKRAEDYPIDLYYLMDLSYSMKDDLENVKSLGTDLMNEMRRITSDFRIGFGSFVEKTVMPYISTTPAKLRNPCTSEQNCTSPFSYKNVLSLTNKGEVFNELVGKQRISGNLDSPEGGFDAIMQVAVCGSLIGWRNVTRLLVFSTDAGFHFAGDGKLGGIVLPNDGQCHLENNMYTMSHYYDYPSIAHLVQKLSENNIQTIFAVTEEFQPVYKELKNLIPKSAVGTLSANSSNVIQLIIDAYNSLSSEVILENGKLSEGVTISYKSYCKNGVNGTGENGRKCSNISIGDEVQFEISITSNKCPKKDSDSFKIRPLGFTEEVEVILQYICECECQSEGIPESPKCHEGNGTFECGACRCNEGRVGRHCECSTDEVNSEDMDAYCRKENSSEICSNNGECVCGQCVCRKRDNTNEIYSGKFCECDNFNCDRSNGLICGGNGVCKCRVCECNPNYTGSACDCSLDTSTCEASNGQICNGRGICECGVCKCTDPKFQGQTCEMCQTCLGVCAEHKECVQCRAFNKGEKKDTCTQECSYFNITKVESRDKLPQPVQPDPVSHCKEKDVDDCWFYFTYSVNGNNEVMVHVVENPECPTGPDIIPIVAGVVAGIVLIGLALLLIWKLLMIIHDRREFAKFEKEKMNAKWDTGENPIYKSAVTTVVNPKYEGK
T1 sequence (P06756 31-889 limits assumed): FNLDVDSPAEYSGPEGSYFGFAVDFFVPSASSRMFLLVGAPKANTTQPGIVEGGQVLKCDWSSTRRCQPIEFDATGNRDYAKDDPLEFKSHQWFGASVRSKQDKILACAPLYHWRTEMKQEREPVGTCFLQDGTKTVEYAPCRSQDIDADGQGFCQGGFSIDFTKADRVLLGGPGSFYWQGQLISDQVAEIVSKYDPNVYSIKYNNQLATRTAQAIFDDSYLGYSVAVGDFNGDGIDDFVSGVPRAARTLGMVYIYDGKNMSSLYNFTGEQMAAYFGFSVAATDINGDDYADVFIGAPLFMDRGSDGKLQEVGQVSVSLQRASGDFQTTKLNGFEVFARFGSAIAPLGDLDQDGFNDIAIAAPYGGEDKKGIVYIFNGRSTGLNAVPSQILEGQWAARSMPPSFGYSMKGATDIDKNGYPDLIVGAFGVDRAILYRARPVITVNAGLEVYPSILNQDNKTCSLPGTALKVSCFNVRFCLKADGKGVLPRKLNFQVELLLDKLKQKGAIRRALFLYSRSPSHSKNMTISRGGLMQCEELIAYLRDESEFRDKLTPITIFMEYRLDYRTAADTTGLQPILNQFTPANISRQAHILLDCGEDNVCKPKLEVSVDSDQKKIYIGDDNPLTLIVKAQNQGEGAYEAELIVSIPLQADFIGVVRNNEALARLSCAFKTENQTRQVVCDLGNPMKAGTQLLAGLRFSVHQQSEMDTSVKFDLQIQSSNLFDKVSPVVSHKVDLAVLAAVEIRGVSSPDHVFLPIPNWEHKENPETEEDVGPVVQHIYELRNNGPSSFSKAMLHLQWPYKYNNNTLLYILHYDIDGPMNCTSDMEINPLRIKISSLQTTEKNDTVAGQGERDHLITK
T1 sequence (P06756 891-1048 partner limits assumed): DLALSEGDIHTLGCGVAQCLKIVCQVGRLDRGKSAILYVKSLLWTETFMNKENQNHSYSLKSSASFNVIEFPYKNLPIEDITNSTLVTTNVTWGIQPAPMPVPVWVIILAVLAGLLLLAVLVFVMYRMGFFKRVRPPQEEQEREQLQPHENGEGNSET
T1 sequence (P05106 27-788): as the sequence (P05106 27-788) above

On to `N=C(N)NCCC[C@H](NC(=O)[C@@H]1CSCC(=O)N[C@H](Cc2ccc(O)cc2)C(=O)N[C@@H](CCCNC(=N)N)C(=O)NCC(=O)N[C@@H](CC(=O)O)C(=O)N1)C(N)=O` [7/1, cyclo-S-acetyl-dTyr--Arg--Gly--Asp--Cys--Arg--NH2] ({CH2CO}-[dY]RGDCR-NH2; thioether N-5), for which the IC50 is 49 nM in assay [1]; 57 nM at Fibronectin Receptor; 80 nM and 83 nM in assay [2] (setting [3]). Further, the “platelet aggregation inhibition potency, result in words” value in assay [2] is recorded as “equipotent”.
Regarding `N=C(N)NCCC[C@@H]1NC(=O)[C@@H](Cc2ccc(O)cc2)NC(=O)CSC[C@@H](C(=O)N[C@H](CCCCN)C(N)=O)NC(=O)[C@H](CC(=O)O)NC(=O)CNC1=O` [7/4, cyclo-S-acetyl-dTyr--Arg--Gly--Asp--Cys--dLys--NH2] ({CH2CO}-[dY]RGDC[dK]-NH2; thioether N-5), the IC50 in assay [1] was determined as 17 nM; at Fibronectin Receptor, 66 nM.
On to `N=C(N)NCCC[C@@H]1NC(=O)[C@@H](Cc2ccc(O)cc2)NC(=O)CSC[C@@H](C(=O)N[C@H](CCCN)C(N)=O)NC(=O)[C@H](CC(=O)O)NC(=O)CNC1=O` [7/6, cyclo-S-acetyl-dTyr--Arg--Gly--Asp--Cys--dOrn--NH2] ({CH2CO}-[dY]RGDC[dOrn]-NH2; thioether N-5), for which the IC50 in assay [1] came to 55 nM; on Fibronectin Receptor, 161 nM; in assay [2] (setting [3]), 1180 nM.
For the compound `N=C(N)NCCC[C@@H]1NC(=O)[C@@H](Cc2ccc(O)cc2)NC(=O)CCC[C@@H](C(=O)N[C@@H](CCCCN)C(N)=O)NC(=O)[C@H](CC(=O)O)NC(=O)CNC1=O` [10/20, cyclo(1-5)dTyr--Arg--Gly--Asp--L-α-aminoadipic acid-Lys--NH2] ([dY]RGD[Aad]K-NH2; lactam N-5), the figures for the IC50 (in assay [1]; at Fibronectin Receptor; in assay [2] (setting [3])) were 20 nM, 2310 nM and 183 nM, respectively.
With `N=C(N)NCCC[C@@H]1NC(=O)[C@@H](Cc2ccc(O)cc2)NC(=O)CSC[C@@H](C(=O)N[C@@H](CCC(N)=O)C(N)=O)NC(=O)[C@H](CC(=O)O)NC(=O)CNC1=O` [7/27, cyclo-S-acetyl-dTyr--Arg--Gly--Asp--Cys--Gln--NH2] ({CH2CO}-[dY]RGDCQ-NH2; thioether N-5), the IC50 in assay [1] was found to be 49 nM; in assay [2] (setting [3]), 1760 nM. Moreover, the “platelet aggregation inhibition potency, result in words” value in assay [2] is reported as “did not significantly improve potency”.
For `N=C(N)NCCC[C@@H]1NC(=O)[C@@H](Cc2ccc(O)cc2)NC(=O)C(CCCCN)SC[C@@H](C(=O)O)NC(=O)[C@H](CC(=O)O)NC(=O)CNC1=O` (single isomer, unassigned) [9/10, cyclo-S-2-L-(6-aminocaproyl)-Lys--dTyr--Arg--Gly--Asp--Cys--OH], the IC50 came out at 9.6 nM in assay [1], 2 nM at Fibronectin Receptor and 498 nM in assay [2] (setting [3]).
Consider `CC1(C)SCC(=O)N[C@H](Cc2ccc(O)cc2)C(=O)N[C@@H](CCCCN)C(=O)NCC(=O)N[C@@H](CC(=O)O)C(=O)N[C@@H]1C(=O)N[C@@H](CCCNC(=N)N)C(N)=O` [7/16, cyclo-S-acetyl-dTyr--Lys--Gly--Asp--Pen--Arg--NH2] ({CH2CO}-[dY]KGD[Pen]R-NH2; thioether N-5), for which the IC50 in assay [1] was 120000 nM; at Fibronectin Receptor, > 10000 nM; in assay [2] (setting [3]), 500 nM and 506 nM.
As to `N=C(N)NCCC[C@@H]1NC(=O)[C@@H](Cc2ccc(O)cc2)NC(=O)CSC[C@@H](C(=O)O)NC(=O)[C@H](CC(=O)O)NC(=O)CNC1=O` [7/46, cyclo-S-acetyl-dTyr--Arg--Gly--Asp--Cys--OH] ({CH2CO}-[dY]RGDC-OH; thioether N-5), the values for the IC50 (in assay [1]; on Fibronectin Receptor; in assay [2] (setting [3])) were 5 nM, 3390 nM and 150 nM, respectively.
In the case of `N=C(N)NCCC[C@@H]1NC(=O)[C@@H](Cc2ccc(O)cc2)NC(=O)CSC[C@@H](C(=O)NCCCCN)NC(=O)[C@H](CC(=O)O)NC(=O)CNC1=O` [8/12, cyclo-S-acetyl-dTyr--Arg--Gly--Asp--Cys--NH--X (X = butylamine)] ({CH2CO}-[dY]RGDC-{NH(CH2)4NH2}; thioether N-5), the IC50 in assay [1] was determined as 70 nM; in assay [2] (setting [3]) it was 390 nM.
As for `N=C(N)NCCC[C@@H]1NC(=O)[C@@H](Cc2ccc(O)cc2)NC(=O)CSC[C@@H](C(=O)NCCCCC(=O)O)NC(=O)[C@H](CC(=O)O)NC(=O)CNC1=O` [7/28, cyclo-S-(1-5)-dTyr--Arg--Gly--Asp--Cys--X (X = aminovaleric acid)] ({CH2CO}-[dY]RGDC[Ava]-OH; thioether N-5), the IC50 was determined as 650 nM in assay [1] and 52200 nM in assay [2] (read-out: platelet aggregation inhibition IC50).
As to `N=C(N)NCCC[C@@H]1NC(=O)[C@@H](Cc2ccc(O)cc2)NC(=O)CSC[C@@H](C(=O)N[C@@H](CCCN)C(N)=O)NC(=O)[C@H](CC(=O)O)NC(=O)CNC1=O` [7/5, cyclo-S-acetyl-dTyr--Arg--Gly--Asp--Cys--Orn--NH2] ({CH2CO}-[dY]RGDC[Orn]-NH2; thioether N-5), the IC50 in assay [1] came out at 45 nM; at Fibronectin Receptor, 63 nM.
On the same counts, the results for `N=C(N)NCCC[C@@H]1NC(=O)[C@@H](Cc2ccc(O)cc2)NC(=O)CSC[C@@H](C(=O)N[C@H](CCCNC(=N)N)C(N)=O)NC(=O)[C@H](CC(=O)O)NC(=O)CNC1=O` [7/2, cyclo-S-acetyl-dTyr--Arg--Gly--Asp--Cys--dArg--NH2] ({CH2CO}-[dY]RGDC[dR]-NH2; thioether N-5) are 22 nM and 42 nM.
Taken in the same sequence, the figures for `N=C(N)NCCC[C@H](NC(=O)[C@H](Cc1ccc(O)cc1)NC(=O)[C@@H]1CSCC(=O)N[C@H](Cc2ccc(O)cc2)C(=O)N[C@@H](CCCNC(=N)N)C(=O)NCC(=O)N[C@@H](CC(=O)O)C(=O)N1)C(N)=O` [7/7, cyclo-S-acetyl-dTyr--Arg--Gly--Asp--Cys--Tyr--Arg--NH2] ({CH2CO}-[dY]RGDCYR-NH2; thioether N-5) were 51 nM and 27 nM.
